Measured values from patent US6608082B1, “Treatment of erectile dysfunction using isoquinoline compound melanocortin receptor ligands” (Lion Bioscience AG, priority 1998, dated 2003).

What was measured:
MCR-1 = target: T1, MCR-1 (Homo sapiens, UniProt Q01726); assay: Melanocortin receptor binding assay, competition with 125I-HP 467, HEK 293 cells expressing hMCR-1; conditions: inhibition of binding of 125I-HP 467, HEK 293 cells expressing MCR-1, TRG 2414 library; for IC50: read-out: MC-1 IC50
T1 construct: expressed in transfected cells; host or cells: HEK 293
T1 sequence (Q01726 whole entry): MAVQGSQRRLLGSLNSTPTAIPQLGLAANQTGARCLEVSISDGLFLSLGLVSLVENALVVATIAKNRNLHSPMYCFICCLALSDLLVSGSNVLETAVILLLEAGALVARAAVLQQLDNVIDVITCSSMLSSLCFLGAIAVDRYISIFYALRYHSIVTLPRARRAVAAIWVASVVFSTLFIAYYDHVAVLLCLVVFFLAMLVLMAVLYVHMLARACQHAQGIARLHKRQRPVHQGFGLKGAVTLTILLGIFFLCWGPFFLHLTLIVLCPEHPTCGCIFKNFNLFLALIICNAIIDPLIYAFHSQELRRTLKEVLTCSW
Procedure, shortened: (§1)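 Intact-cell competition binding, 2.5 hr at 37 °C, in PBS/10% calf serum/1 mM CaCl2; hMCR-4 cells at 4×10^3 per tube, hMCR-1 cells at 2×10^4 per tube. Filtration on BSA/CaCl2-soaked GF/B, cold 50 mM Tris pH 7.4 washes, scintillation count.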

MCR-4 = target: T2, MCR-4 (Homo sapiens, UniProt P32245); assay: Melanocortin receptor binding assay, competition with 125I-HP 467, HEK 293 cells expressing hMCR-4; conditions: inhibition of binding of 125I-HP 467, HEK 293 cells expressing MCR-4, TRG 2414 library; for IC50: read-out: MC-4 IC50
T2 construct: expressed in transfected cells; host or cells: HEK 293
T2 sequence (P32245 whole entry): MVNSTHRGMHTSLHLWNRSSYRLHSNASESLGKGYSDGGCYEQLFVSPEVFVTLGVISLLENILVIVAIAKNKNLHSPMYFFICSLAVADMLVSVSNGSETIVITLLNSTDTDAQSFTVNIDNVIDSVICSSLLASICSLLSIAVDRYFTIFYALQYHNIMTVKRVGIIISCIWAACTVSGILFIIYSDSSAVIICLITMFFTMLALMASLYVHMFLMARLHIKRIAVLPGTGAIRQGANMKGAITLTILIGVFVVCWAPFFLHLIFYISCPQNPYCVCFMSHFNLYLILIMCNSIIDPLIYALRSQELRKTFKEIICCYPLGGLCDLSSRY
Procedure, shortened: as §1

| Structure (SMILES) | IC50 (MCR-1) [µM] | IC50 (MCR-4) [µM] | MC-1 IC50 (MCR-1) | MC-4 IC50 (MCR-4) |
| --- | --- | --- | --- | --- |
| NCC(N)CCCCN1Cc2ccccc2C(CNCCc2cccc(Cl)c2)C1c1cc(C(F)(F)F)cc(C(F)(F)F)c1 (stereo not drawn) [TRG 2414-53] | 9.78 | 0.64 | – | – |
| NCC(CCCCN1Cc2ccccc2C(CNCCc2cccc(Cl)c2)C1c1cc(C(F)(F)F)cc(C(F)(F)F)c1)NCCc1ccccc1 (stereo not drawn) [TRG 2414-54] | 9.81 | 3.06 | – | – |
| NCC(CCCCN1Cc2ccccc2C(CNCCc2cccc(Cl)c2)C1c1cc(C(F)(F)F)cc(C(F)(F)F)c1)NCc1ccccc1 (stereo not drawn) [TRG 2414-55] | 12.5 | 3.12 | – | – |
| CC(C)Cc1ccc(C(C)CNC(CN)CCCCN2Cc3ccccc3C(CNCCc3cccc(Cl)c3)C2c2cc(C(F)(F)F)cc(C(F)(F)F)c2)cc1 (stereo not drawn) [TRG 2414-56] | – | 42.6 | no fit | – |
| COc1cccc(CNCC2c3ccccc3CN(CCCCC(N)CN)C2c2cc(C(F)(F)F)cc(C(F)(F)F)c2)c1 (stereo not drawn) [TRG 2414-57] | 7.7 | 1.55 | – | – |
| COc1cccc(CNCC2c3ccccc3CN(CCCCC(CN)NCCc3ccccc3)C2c2cc(C(F)(F)F)cc(C(F)(F)F)c2)c1 (stereo not drawn) [TRG 2414-58] | 6.72 | 3.45 | – | – |
| COc1cccc(CNCC2c3ccccc3CN(CCCCC(CN)NCc3ccccc3)C2c2cc(C(F)(F)F)cc(C(F)(F)F)c2)c1 (stereo not drawn) [TRG 2414-59] | 9.64 | 6.76 | – | – |
| COc1cccc(CNCC2c3ccccc3CN(CCCCC(CN)NCC(C)c3ccc(CC(C)C)cc3)C2c2cc(C(F)(F)F)cc(C(F)(F)F)c2)c1 (stereo not drawn) [TRG 2414-60] | – | 52.6 | no fit | – |
| COc1ccc(CNCC2c3ccccc3CN(CCCCC(N)CN)C2c2cc(C(F)(F)F)cc(C(F)(F)F)c2)cc1 (stereo not drawn) [TRG 2414-61] | 10.5 | 1.67 | – | – |
| COc1ccc(CNCC2c3ccccc3CN(CCCCC(CN)NCCc3ccccc3)C2c2cc(C(F)(F)F)cc(C(F)(F)F)c2)cc1 (stereo not drawn) [TRG 2414-62] | 15.5 | 6.87 | – | – |
| COc1ccc(CNCC2c3ccccc3CN(CCCCC(CN)NCc3ccccc3)C2c2cc(C(F)(F)F)cc(C(F)(F)F)c2)cc1 (stereo not drawn) [TRG 2414-63] | 14.5 | 5.34 | – | – |
| COc1ccc(CNCC2c3ccccc3CN(CCCCC(CN)NCC(C)c3ccc(CC(C)C)cc3)C2c2cc(C(F)(F)F)cc(C(F)(F)F)c2)cc1 (stereo not drawn) [TRG 2414-64] | 34.5 | 45.5 | – | – |
| COc1ccc(CCNCC2c3ccccc3CN(CCCCC(N)CN)C2c2cc(C(F)(F)F)cc(C(F)(F)F)c2)cc1 (stereo not drawn) [TRG 2414-65] | 3.3 | 0.26 | – | – |
| COc1ccc(CCNCC2c3ccccc3CN(CCCCC(CN)NCCc3ccccc3)C2c2cc(C(F)(F)F)cc(C(F)(F)F)c2)cc1 (stereo not drawn) [TRG 2414-66] | 10.5 | 3.2 | – | – |
| COc1ccc(CCNCC2c3ccccc3CN(CCCCC(CN)NCc3ccccc3)C2c2cc(C(F)(F)F)cc(C(F)(F)F)c2)cc1 (stereo not drawn) [TRG 2414-67] | 0.033 | 5.21 | – | – |
| COc1ccc(CCNCC2c3ccccc3CN(CCCCC(CN)NCC(C)c3ccc(CC(C)C)cc3)C2c2cc(C(F)(F)F)cc(C(F)(F)F)c2)cc1 (stereo not drawn) [TRG 2414-68] | – | 17.7 | no fit | – |
| NCC(N)CCCCN1Cc2ccccc2C(CNCc2ccccc2)C1c1cc(C(F)(F)F)cc(C(F)(F)F)c1 (stereo not drawn) [TRG 2414-69] | 9.45 | 0.64 | – | – |
| NCC(CCCCN1Cc2ccccc2C(CNCc2ccccc2)C1c1cc(C(F)(F)F)cc(C(F)(F)F)c1)NCCc1ccccc1 (stereo not drawn) [TRG 2414-70] | 18.3 | 9.29 | – | – |
| NCC(CCCCN1Cc2ccccc2C(CNCc2ccccc2)C1c1cc(C(F)(F)F)cc(C(F)(F)F)c1)NCc1ccccc1 (stereo not drawn) [TRG 2414-71] | 17 | 9.06 | – | – |
| CC(C)Cc1ccc(C(C)CNC(CN)CCCCN2Cc3ccccc3C(CNCc3ccccc3)C2c2cc(C(F)(F)F)cc(C(F)(F)F)c2)cc1 (stereo not drawn) [TRG 2414-72] | – | 44.2 | no fit | – |

| Structure (SMILES) | IC50 (MCR-1) [µM] | IC50 (MCR-4) [µM] | MC-1 IC50 (MCR-1) | MC-4 IC50 (MCR-4) |
| --- | --- | --- | --- | --- |
| NCC(N)CCCCN1Cc2ccccc2C(CNC2CCCCCC2)C1c1cc(C(F)(F)F)cc(C(F)(F)F)c1 (stereo not drawn) [TRG 2414-73] | 5.77 | 1.01 | – | – |
| NCC(CCCCN1Cc2ccccc2C(CNC2CCCCCC2)C1c1cc(C(F)(F)F)cc(C(F)(F)F)c1)NCCc1ccccc1 (stereo not drawn) [TRG 2414-74] | 11.2 | 4.57 | – | – |
| NCC(CCCCN1Cc2ccccc2C(CNC2CCCCCC2)C1c1cc(C(F)(F)F)cc(C(F)(F)F)c1)NCc1ccccc1 (stereo not drawn) [TRG 2414-75] | 1.92 | 3.24 | – | – |
| CC(C)Cc1ccc(C(C)CNC(CN)CCCCN2Cc3ccccc3C(CNC3CCCCCC3)C2c2cc(C(F)(F)F)cc(C(F)(F)F)c2)cc1 (stereo not drawn) [TRG 2414-76] | – | 54.4 | no fit | – |
| NCC(N)CCCCN1Cc2ccccc2C(CNC2CCCCC2)C1c1cc(C(F)(F)F)cc(C(F)(F)F)c1 (stereo not drawn) [TRG 2414-77] | 3.86 | 0.63 | – | – |
| NCC(CCCCN1Cc2ccccc2C(CNC2CCCCC2)C1c1cc(C(F)(F)F)cc(C(F)(F)F)c1)NCCc1ccccc1 (stereo not drawn) [TRG 2414-78] | 6.28 | 4.26 | – | – |
| NCC(CCCCN1Cc2ccccc2C(CNC2CCCCC2)C1c1cc(C(F)(F)F)cc(C(F)(F)F)c1)NCc1ccccc1 (stereo not drawn) [TRG 2414-79] | 10.4 | 4.99 | – | – |
| CC(C)Cc1ccc(C(C)CNC(CN)CCCCN2Cc3ccccc3C(CNC3CCCCC3)C2c2cc(C(F)(F)F)cc(C(F)(F)F)c2)cc1 (stereo not drawn) [TRG 2414-80] | 23.7 | 27 | – | – |
| NCC(CCCCN1Cc2ccccc2C(CNCc2ccccc2C(F)(F)F)C1c1cccc(Oc2ccccc2)c1)NCc1ccccc1 (stereo not drawn) [TRG 2414-83] | 31.5 | – | – | no fit |
| CC(C)Cc1ccc(C(C)CN[C@H](CN)CCCCN2Cc3ccccc3C(CNCc3ccccc3C(F)(F)F)C2c2cccc(Oc3ccccc3)c2)cc1 (stereo partly drawn) [TRG 2414-84] | – | – | no fit | no fit |
| CCOc1ccccc1CNCC1c2ccccc2CN(CCCCC(CN)NCCc2ccccc2)C1c1cccc(Oc2ccccc2)c1 (stereo not drawn) [TRG 2414-86] | 11.8 | 16.2 | – | – |
| CCOc1ccccc1CNCC1c2ccccc2CN(CCCCC(CN)NCc2ccccc2)C1c1cccc(Oc2ccccc2)c1 (stereo not drawn) [TRG 2414-87] | 6.65 | 11.2 | – | – |
| CCOc1ccccc1CNCC1c2ccccc2CN(CCCCC(CN)NCC(C)c2ccc(CC(C)C)cc2)C1c1cccc(Oc2ccccc2)c1 (stereo not drawn) [TRG 2414-88] | 36.5 | – | – | no fit |
| COc1ccccc1CCNCC1c2ccccc2CN(CCCCC(N)CN)C1c1cccc(Oc2ccccc2)c1 (stereo not drawn) [TRG 2414-89] | 1.26 | 0.73 | – | – |
| COc1ccccc1CCNCC1c2ccccc2CN(CCCCC(CN)NCCc2ccccc2)C1c1cccc(Oc2ccccc2)c1 (stereo not drawn) [TRG 2414-90] | 3.52 | 4.06 | – | – |
| COc1ccccc1CCNCC1c2ccccc2CN(CCCCC(CN)NCc2ccccc2)C1c1cccc(Oc2ccccc2)c1 (stereo not drawn) [TRG 2414-91] | 3.21 | 2.74 | – | – |
| NCC(N)CCCCN1Cc2ccccc2C(CNCCc2cccc(Cl)c2)C1c1cccc(Oc2ccccc2)c1 (stereo not drawn) [TRG 2414-93] | 6.3 | 3.8 | – | – |
| NCC(CCCCN1Cc2ccccc2C(CNCCc2cccc(Cl)c2)C1c1cccc(Oc2ccccc2)c1)NCCc1ccccc1 (stereo not drawn) [TRG 2414-94] | 16.9 | 8.2 | – | – |
| NCC(CCCCN1Cc2ccccc2C(CNCCc2cccc(Cl)c2)C1c1cccc(Oc2ccccc2)c1)NCc1ccccc1 (stereo not drawn) [TRG 2414-95] | 8.66 | 5.26 | – | – |
